Data published in patent US20250205344A1, “2,4-DIOXOTETRAHYDROPYRIMIDINYL DERATIVES AS DEGRONS IN PROTACS” (GLAXOSMITHKLINE INTELLECTUAL PROPERTY DEVELOPMENT LIMITED, priority 2022, published 2025).
Where a name gives a salt, the structure may show the parent alone.

Target: T1, Androgen Receptor (Homo sapiens, UniProt P10275, T878A)
T1 construct: the AR gene was modified, using CRISPR/Cas9 editing, so the expressed AR protein included an 11 amino acid HiBiT tag; endogenous in cells; host or cells: clonal LnCaP-derived line, AR gene edited by CRISPR/Cas9
T1 sequence (P10275 whole entry T878A): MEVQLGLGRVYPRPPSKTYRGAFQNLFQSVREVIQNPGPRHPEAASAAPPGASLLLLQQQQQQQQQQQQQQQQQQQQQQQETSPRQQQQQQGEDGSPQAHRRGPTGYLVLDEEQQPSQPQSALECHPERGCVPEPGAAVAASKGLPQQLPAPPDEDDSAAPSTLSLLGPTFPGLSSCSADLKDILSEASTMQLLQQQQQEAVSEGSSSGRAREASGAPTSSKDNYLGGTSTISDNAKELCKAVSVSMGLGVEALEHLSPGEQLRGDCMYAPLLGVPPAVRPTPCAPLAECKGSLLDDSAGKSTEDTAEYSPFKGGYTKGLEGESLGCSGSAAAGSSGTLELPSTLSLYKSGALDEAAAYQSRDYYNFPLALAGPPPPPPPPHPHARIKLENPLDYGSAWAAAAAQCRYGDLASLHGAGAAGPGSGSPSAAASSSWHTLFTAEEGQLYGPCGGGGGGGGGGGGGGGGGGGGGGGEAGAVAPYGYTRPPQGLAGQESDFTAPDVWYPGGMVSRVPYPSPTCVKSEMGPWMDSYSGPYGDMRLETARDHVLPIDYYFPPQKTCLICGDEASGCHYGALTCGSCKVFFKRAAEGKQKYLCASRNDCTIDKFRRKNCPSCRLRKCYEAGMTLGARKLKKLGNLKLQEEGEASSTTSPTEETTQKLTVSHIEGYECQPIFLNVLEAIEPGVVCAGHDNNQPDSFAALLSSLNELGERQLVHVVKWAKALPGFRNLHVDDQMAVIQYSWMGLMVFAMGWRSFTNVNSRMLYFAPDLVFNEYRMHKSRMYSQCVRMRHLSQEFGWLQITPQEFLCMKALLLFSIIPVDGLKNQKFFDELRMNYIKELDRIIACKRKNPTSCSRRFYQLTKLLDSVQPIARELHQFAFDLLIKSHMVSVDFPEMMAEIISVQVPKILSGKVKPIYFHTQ
T1 sequence (Q96SW2 whole entry partner): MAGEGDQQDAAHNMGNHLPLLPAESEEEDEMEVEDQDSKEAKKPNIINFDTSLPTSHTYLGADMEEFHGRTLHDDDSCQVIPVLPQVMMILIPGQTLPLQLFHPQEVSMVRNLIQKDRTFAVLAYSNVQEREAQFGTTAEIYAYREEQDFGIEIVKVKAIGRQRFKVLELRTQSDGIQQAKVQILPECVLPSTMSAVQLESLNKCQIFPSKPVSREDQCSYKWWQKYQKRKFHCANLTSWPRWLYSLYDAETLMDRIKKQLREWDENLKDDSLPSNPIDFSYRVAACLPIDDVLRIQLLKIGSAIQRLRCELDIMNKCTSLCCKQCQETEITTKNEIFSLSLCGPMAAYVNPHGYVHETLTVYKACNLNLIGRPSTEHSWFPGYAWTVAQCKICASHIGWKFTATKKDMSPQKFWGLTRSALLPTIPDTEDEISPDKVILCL
T1 sequence (Q16531 whole entry partner): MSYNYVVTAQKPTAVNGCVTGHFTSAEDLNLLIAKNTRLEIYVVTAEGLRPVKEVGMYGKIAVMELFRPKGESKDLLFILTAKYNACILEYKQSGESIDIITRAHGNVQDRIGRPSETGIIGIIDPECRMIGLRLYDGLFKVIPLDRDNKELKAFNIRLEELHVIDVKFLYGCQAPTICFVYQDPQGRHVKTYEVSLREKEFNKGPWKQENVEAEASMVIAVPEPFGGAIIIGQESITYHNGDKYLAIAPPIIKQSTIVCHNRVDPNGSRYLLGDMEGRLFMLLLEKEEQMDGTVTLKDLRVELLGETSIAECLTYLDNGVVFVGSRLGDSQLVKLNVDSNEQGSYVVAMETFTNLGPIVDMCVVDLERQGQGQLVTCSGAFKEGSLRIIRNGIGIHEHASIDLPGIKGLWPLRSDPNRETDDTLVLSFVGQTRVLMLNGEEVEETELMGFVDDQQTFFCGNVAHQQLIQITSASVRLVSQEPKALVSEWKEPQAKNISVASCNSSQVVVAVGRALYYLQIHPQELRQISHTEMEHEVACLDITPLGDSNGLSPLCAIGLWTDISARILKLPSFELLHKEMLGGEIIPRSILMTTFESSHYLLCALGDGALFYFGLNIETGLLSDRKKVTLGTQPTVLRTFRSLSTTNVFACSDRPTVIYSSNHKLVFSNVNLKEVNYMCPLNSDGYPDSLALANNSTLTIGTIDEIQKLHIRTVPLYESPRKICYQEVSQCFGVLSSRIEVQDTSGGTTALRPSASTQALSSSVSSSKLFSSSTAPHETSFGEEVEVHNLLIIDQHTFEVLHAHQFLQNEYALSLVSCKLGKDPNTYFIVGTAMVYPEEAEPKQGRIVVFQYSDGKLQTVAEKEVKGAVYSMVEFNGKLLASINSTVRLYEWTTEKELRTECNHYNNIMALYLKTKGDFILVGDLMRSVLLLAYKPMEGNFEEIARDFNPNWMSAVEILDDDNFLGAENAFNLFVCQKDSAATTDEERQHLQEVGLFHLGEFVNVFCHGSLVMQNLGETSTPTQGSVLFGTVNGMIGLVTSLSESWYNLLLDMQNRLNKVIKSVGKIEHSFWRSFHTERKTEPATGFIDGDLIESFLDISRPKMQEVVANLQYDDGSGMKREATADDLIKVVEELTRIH
Experiment: Androgen Receptor Degradation Assay (Nano-Glo HiBiT)
Format: cell-based
Conditions: LNCaP, 18 h, HiBiT-tagged AR in human LnCaP cells, read-out: mean asymptote max
Method in brief: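 LnCaP cells with CRISPR-knocked-in N-terminal HiBiT-tagged AR (10,000/well) treated 18 h at 37 °C with PROTACs over 11 threefold concentrations; lytic HiBiT luminescence normalised to DMSO (0%) and cell-free (100%) controls. Relative DC50 = 4-parameter fit inflection; absolute DC50 = 50% degradation interpolation; Dmax = maximum observed degradation.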

Structure (SMILES)	Dmax
CC(C)n1ccc2c(N3CCC(=O)NC3=O)cc(C(=O)N3CCN(CCCOc4ccc(C(=O)N[C@H]5CC[C@H](Oc6ccc(C#N)c(Cl)c6)CC5)nc4)CC3)cc21 [EAR59, N-((1r,4r)-4-(3-Chloro-4-cyanophenoxy)cyclohexyl)-5-(3-(4-(4-(2,4-dioxotetrahydropyrimidin-1(2H)-yl)-1-isopropyl-1H-indole-6-carbonyl)piperazin-1-yl)propoxy)picolinamide]	≥ 50%
CC(C)n1ccc2c(N3CCC(=O)NC3=O)cc(C(=O)N(C)CC3CCN(CCCOc4ccc(C(=O)N[C@H]5CC[C@H](Oc6ccc(C#N)c(Cl)c6)CC5)nc4)CC3)cc21 [EAR61, N-((1-(3-((6-(((1r,4r)-4-(3-Chloro-4-cyanophenoxy)cyclohexyl)carbamoyl)pyridin-3-yl)oxy)propyl)piperidin-4-yl)methyl)-4-(2,4-dioxotetrahydropyrimidin-1(2H)-yl)-1-isopropyl-N-methyl-1H-indole-6-carboxamide]	≥ 50%
N#Cc1ccc(O[C@H]2CC[C@H](NC(=O)c3ccc(OCCCN4CCC(n5ccc6c(N7CCC(=O)NC7=O)cccc65)CC4)cn3)CC2)cc1Cl [EAR62, N-((1r,4r)-4-(3-Chloro-4-cyanophenoxy)cyclohexyl)-5-(3-(4-(4-(2,4-dioxotetrahydropyrimidin-1(2H)-yl)-1H-indol-1-yl)piperidin-1-yl)propoxy)picolinamide]	≥ 50%
CC(C)n1ccc2c(N3CCC(=O)NC3=O)cc(C(=O)N(C)C3CCN(CCCCOc4ccc(C(=O)N[C@H]5CC[C@H](Oc6ccc(C#N)c(Cl)c6)CC5)nc4)CC3)cc21 [EAR64, N-(1-(4-((6-(((1r,4r)-4-(3-Chloro-4-cyanophenoxy)cyclohexyl)carbamoyl)pyridin-3-yl)oxy)butyl)piperidin-4-yl)-4-(2,4-dioxotetrahydropyrimidin-1(2H)-yl)-1-isopropyl-N-methyl-1H-indole-6-carboxamide]	≥ 50%
CC(C)n1ccc2c(N3CCC(=O)NC3=O)cc(C(=O)N(C)CC3CCN(CCCCOc4ccc(C(=O)N[C@H]5CC[C@H](Oc6ccc(C#N)c(Cl)c6)CC5)nc4)CC3)cc21 [EAR65, N-((1-(4-((6-(((1r,4r)-4-(3-Chloro-4-cyanophenoxy)cyclohexyl)carbamoyl)pyridin-3-yl)oxy)butyl)piperidin-4-yl)methyl)-4-(2,4-dioxotetrahydropyrimidin-1(2H)-yl)-1-isopropyl-N-methyl-1H-indole-6-carboxamide]	≥ 50%
N#Cc1ccc(O[C@H]2CC[C@H](NC(=O)c3ccc(OCCCCN4CCC(n5ccc6c(N7CCC(=O)NC7=O)cccc65)CC4)cn3)CC2)cc1Cl [EAR66, N-((1r,4r)-4-(3-chloro-4-cyanophenoxy)cyclohexyl)-5-(4-(4-(4-(2,4-dioxotetrahydropyrimidin-1(2H)-yl)-1H-indol-1-yl)piperidin-1-yl)butoxy)picolinamide]	≥ 50%
N#Cc1ccc(O[C@H]2CC[C@H](NC(=O)c3cnc(N4CCC(C(=O)N5CCC(n6ccc7c(N8CCC(=O)NC8=O)cccc76)CC5)CC4)nc3)CC2)cc1C(F)(F)F [EAR68, N-((1r,4r)-4-(4-Cyano-3-(trifluoromethyl)phenoxy)cyclohexyl)-2-(4-(4-(4-(2,4-dioxotetrahydropyrimidin-1(2H)-yl)-1H-indol-1-yl)piperidine-1-carbonyl)piperidin-1-yl)pyrimidine-5-carboxamide]	≥ 50%
N#Cc1ccc(O[C@H]2CC[C@H](NC(=O)c3cnc(N4CCC(C(=O)N5CCC(n6ccc7c(N8CCC(=O)NC8=O)cccc76)CC5)CC4)nc3)CC2)cc1Cl [EAR69, N-((1r,4r)-4-(3-Chloro-4-cyanophenoxy)cyclohexyl)-2-(4-(4-(4-(2,4-dioxotetrahydropyrimidin-1(2H)-yl)-1H-indol-1-yl)piperidine-1-carbonyl)piperidin-1-yl)pyrimidine-5-carboxamide]	≥ 50%
N#Cc1ccc(O[C@H]2CC[C@H](NC(=O)c3ccc(N4CC(CN5CCC(n6ccc7c(N8CCC(=O)NC8=O)cccc76)CC5)C4)nn3)CC2)cc1Cl [EAR72, N-((1r,4r)-4-(3-Chloro-4-cyanophenoxy)cyclohexyl)-6-(3-((4-(4-(2,4-dioxotetrahydropyrimidin-1(2H)-yl)-1H-indol-1-yl)piperidin-1-yl)methyl)azetidin-1-yl)pyridazine-3-carboxamide hydrochloride]	≥ 50%
CC(C)n1ccc2c(N3CCC(=O)NC3=O)cc(C(=O)NCCOCCN3CCN(c4ccc(C(=O)N[C@H]5CC[C@H](Oc6ccc(C#N)c(Cl)c6)CC5)nn4)CC3)cc21 [EAR76, N-(2-(2-(4-(6-(((1r,4r)-4-(3-Chloro-4-cyanophenoxy)cyclohexyl)carbamoyl)pyridazin-3-yl)piperazin-1-yl)ethoxy)ethyl)-4-(2,4-dioxotetrahydropyrimidin-1(2H)-yl)-1-isopropyl-1H-indole-6-carboxamide]	≥ 50%
CC(C)n1ccc2c(N3CCC(=O)NC3=O)cc(C(=O)N3CCN(c4ccc(C(=O)N[C@H]5CC[C@H](Oc6ccc(C#N)c(Cl)c6)CC5)nn4)CC3)cc21 [EAR77, N-((1r,4r)-4-(3-Chloro-4-cyanophenoxy)cyclohexyl)-6-(4-(4-(2,4-dioxotetrahydropyrimidin-1(2H)-yl)-1-isopropyl-1H-indole-6-carbonyl)piperazin-1-yl)pyridazine-3-carboxamide]	≥ 50%
CC(C)n1ccc2c(N3CCC(=O)NC3=O)cc(C(=O)N3CCN(CC4CCN(c5ccc(C(=O)N[C@H]6C(C)(C)[C@H](Oc7ccc(C#N)c(Cl)c7)C6(C)C)nn5)CC4)CC3)cc21 [EAR78, N-((1r,3r)-3-(3-Chloro-4-cyanophenoxy)-2,2,4,4-tetramethylcyclobutyl)-6-(4-((4-(4-(2,4-dioxotetrahydropyrimidin-1(2H)-yl)-1-isopropyl-1H-indole-6-carbonyl)piperazin-1-yl)methyl)piperidin-1-yl)pyridazine-3-carboxamide]	≥ 50%
CC(C)n1ccc2c(N3CCC(=O)NC3=O)cc(C(=O)N3CCN(CC4CCN(c5ccc(C(=O)N[C@H]6CC[C@H](Oc7ccc(C#N)c(Cl)c7)CC6)cn5)CC4)CC3)cc21 [EAR80, N-((1r,4r)-4-(3-Chloro-4-cyanophenoxy)cyclohexyl)-6-(4-((4-(4-(2,4-dioxotetrahydropyrimidin-1(2H)-yl)-1-isopropyl-1H-indole-6-carbonyl)piperazin-1-yl)methyl)piperidin-1-yl)nicotinamide]	≥ 50%
CC(C)n1ccc2c(N3CCC(=O)NC3=O)cc(C(=O)N3CCC4(CCCN(Cc5ccc(C(=O)N[C@H]6CC[C@H](Oc7ccc(C#N)c(Cl)c7)CC6)cc5)C4)CC3)cc21 [EAR81, N-((1r,4r)-4-(3-Chloro-4-cyanophenoxy)cyclohexyl)-4-((9-(4-(2,4-dioxotetrahydropyrimidin-1(2H)-yl)-1-isopropyl-1H-indole-6-carbonyl)-2,9-diazaspiro[5.5]undecan-2-yl)methyl)benzamide]	≥ 50%
CC(C)n1ccc2c(N3CCC(=O)NC3=O)cc(C(=O)N3CCC4(CCCN(CCCCCc5ccc(C(=O)N[C@H]6CC[C@H](Oc7ccc(C#N)c(Cl)c7)CC6)cc5)C4)CC3)cc21 [EAR83, N-((1r,4r)-4-(3-Chloro-4-cyanophenoxy)cyclohexyl)-4-(5-(9-(4-(2,4-dioxotetrahydropyrimidin-1(2H)-yl)-1-isopropyl-1H-indole-6-carbonyl)-2,9-diazaspiro[5.5]undecan-2-yl)pentyl)benzamide]	≥ 50%
CC(C)n1ccc2c(N3CCC(=O)NC3=O)cc(C(=O)N3CCC4(CCN(Cc5ccc(C(=O)N[C@H]6CC[C@H](Oc7ccc(C#N)c(Cl)c7)CC6)cc5)CC4)CC3)cc21 [EAR84, N-((1r,4r)-4-(3-Chloro-4-cyanophenoxy)cyclohexyl)-4-((9-(4-(2,4-dioxotetrahydropyrimidin-1(2H)-yl)-1-isopropyl-1H-indole-6-carbonyl)-3,9-diazaspiro[5.5]undecan-3-yl)methyl)benzamide]	≥ 50%
CC(C)n1ccc2c(N3CCC(=O)NC3=O)cc(C(=O)N3CCC4(CCN(CCCc5ccc(C(=O)N[C@H]6CC[C@H](Oc7ccc(C#N)c(Cl)c7)CC6)cc5)CC4)CC3)cc21 [EAR85, N-((1r,4r)-4-(3-Chloro-4-cyanophenoxy)cyclohexyl)-4-(3-(9-(4-(2,4-dioxotetrahydropyrimidin-1(2H)-yl)-1-isopropyl-1H-indole-6-carbonyl)-3,9-diazaspiro[5.5]undecan-3-yl)propyl)benzamide]	≥ 50%
CC(C)n1ccc2c(N3CCC(=O)NC3=O)cc(C(=O)N3CCCC34CCN(CCCCCCc3ccc(C(=O)N[C@H]5CC[C@H](Oc6ccc(C#N)c(Cl)c6)CC5)cc3)CC4)cc21 [EAR86, N-((1r,4r)-4-(3-Chloro-4-cyanophenoxy)cyclohexyl)-4-(6-(1-(4-(2,4-dioxotetrahydropyrimidin-1(2H)-yl)-1-isopropyl-1H-indole-6-carbonyl)-1,8-diazaspiro[4.5]decan-8-yl)hexyl)benzamide]	≥ 50%
CC(C)n1ccc2c(N3CCC(=O)NC3=O)cc(C(=O)N3CCN(CCCCCCc4ccc(C(=O)N[C@H]5C(C)(C)[C@H](Oc6ccc(C#N)c(C(F)(F)F)c6)C5(C)C)cc4)CC3)cc21 [EAR87, N-((1r,3r)-3-(4-Cyano-3-(trifluoromethyl)phenoxy)-2,2,4,4-tetramethylcyclobutyl)-4-(6-(4-(4-(2,4-dioxotetrahydropyrimidin-1(2H)-yl)-1-isopropyl-1H-indole-6-carbonyl)piperazin-1-yl)hexyl)benzamide]	≥ 50%
CC(C)n1ccc2c(N3CCC(=O)NC3=O)cc(C(=O)N(C)CC3CCN(C4CCN(c5ccc(N6C(=S)N(c7ccc(C#N)c(C(F)(F)F)c7)C(=O)C6(C)C)cc5)CC4)CC3)cc21 [EAR88, N-((1′-(4-(3-(4-Cyano-3-(trifluoromethyl)phenyl)-5,5-dimethyl-4-oxo-2-thioxoimidazolidin-1-yl)phenyl)-[1,4′-bipiperidin]-4-yl)methyl)-4-(2,4-dioxotetrahydropyrimidin-1(2H)-yl)-1-isopropyl-N-methyl-1H-indole-6-carboxamide formate]	≥ 50%
